Assay results reported in patent US20090239926A1, “METHODS FOR THE TREATMENT OF PSORIASIS OR PSORIATIC ARTHRITIS USING CYCLOPROPYL-N-CARBOXAMIDE” (priority 2008, published 2009).
Values joined by “and” are separate entries in the source; they are usually repeats but may differ in a detail not shown here. Equal values may be shown once.

What was measured:
[1] = system: CD11b expression on neutrophils; experiment: fMLF-induced neutrophil CD11b expression; type: cell-based; conditions: Homo sapiens, 0.5 h, 30 nM fMLF, 30 minutes, flow cytometry
Procedure: CD18/CD11b (Mac-1) expression on neutrophils was measured with the following modifications. (Derian, C. K., et al., J Immunol, 1995. 154(1): 308-17). Neutrophils were isolated as described above, then resuspended in complete medium at 1×10^6 cells/ml, pretreated with Compound A at 10, 1, 0.1, 0.01, and 0 μM in duplicate at a final DMSO concentration of 0.1% for 10 minutes at 37° C. 5% CO2. Cells were then stimulated with 30 nM fMLF for 30 minutes and then chilled to 4° C. Cells were treated with rabbit IgG (Jackson ImmunoResearch Labs, West Grove, Pa., USA) (10 μg/1×10^6 cells) to block Fc receptors, stained with CD18-FITC and CD11b-PE (Becton Dickinson), and analyzed by flow cytometry on a FACSCalibur. CD18/CD11b expression (mean fluorescence) in the absence of stimulation was subtracted from all samples to obtain inhibition curves and calculate IC50.

[2] = system: cAMP in PGE2-stimulated human PBMC; experiment: PGE2-induced cAMP elevation in human PBMC; type: cell-based; conditions: PGE2 10 μM
Description: Prostaglandin E2 (PGE2) binds to prostanoid receptors on monocytes, T cells and other leukocytes and consequently elevates intracellular cAMP levels, resulting in inhibition of cellular responses. The combination of PGE2 and a PDE4 inhibitor synergistically elevates cAMP levels in these cell types, and the elevation of cAMP in PBMC caused by PDE4 inhibitors in the presence of PGE2 is proportional to the inhibitory activity of that PDE4 inhibitor.
Human PBMCs were isolated as described above and plated in 96-well plates at 1×10^6 cells per well in RPMI-1640. The cells were pre-treated with Compound A in a final concentration of 2% DMSO in duplicate at 37° C. in a humidified incubator at 5% CO2 for one hour. The cells were then stimulated with PGE2 (10 μM) (Sigma) for one hour. The cells were lysed with HCl, 0.1N final concentration to inhibit phosphodiesterase activity and the plates were frozen at −20° C. The cAMP produced was measured using cAMP (low pH) Immunoassay kit (R&D Systems).

[3] = system: mAB/LPS-induced experimental arthritis in male BALB/c mice; experiment: mAb/LPS-induced mice arthritis model; type: in vivo
Procedure: Treatment Regimen: Compound A was administered by oral gavage (PO), using a suitable stainless steel feeding needle. Enbrel (Reference Item) was administrated by intraperitoneal (IP) injections. Compound A was first administered on study Day 3 (one hour prior to the single LPS injection) and thereafter on Days 4, 5, 6, 7, 8, 9, 10, 11, 12 and 13 (total of 11 successive treatment days) at 1, 5 and 25 mg/kg once daily. Compound A treated groups comprised n=8 BALB/c male mice per dosing group. In addition, two equally sized groups were treated with either Enbrel (5 mg/kg/day, Reference Item), or a solution of 0.5% Na CMC/0.25% Tween 80 (PO, 5 ml/kg, Vehicle Control).
Arthritis Reactions: Both hind paws (left and right) of each animal were examined for signs of arthritogenic responses prior to arthritis induction (Day 0) and thereafter on study days 4, 5, 6, 7, 9, 11 & 14 as selected by the Sponsor. Arthritis reactions were scored and recorded according to a 0-4 scale in ascending order of severity (based on Morwell MD Biosciences Inc. brochure) as shown in Table 1.
Measurements of Experimental Arthritis: Hind paw thickness was determined on eight days using a Mitutoyo Electronic Digital Caliper (on Days 0, 4, 5, 6, 7, 9, 11 and 14) and presented as mean group values of the average for both left and right hind paws.

[4] = molecular target: T1, PDE5 from human platelets (Homo sapiens, UniProt O76074); experiment: Specificity: PDE5; type: biochemical
T1 construct: PDE3 and PDE5 from human platelets; from tissue; host or cells: human platelets
Procedure: The specificity of Compound A for PDE4 was assessed by testing at a single concentration (10 μM) against bovine PDE1, human PDE2, PDE3 and PDE5 from human platelets, and PDE6 from bovine retinal rod outer segments.

[5] = Compound A 1 mg/kg/day PO, Day 0 (prior to arthritis induction)
[6] = Compound A 1 mg/kg/day PO, Day 4
[7] = Compound A 1 mg/kg/day PO, Day 5
[8] = Compound A 1 mg/kg/day PO, Day 6
[9] = Compound A 1 mg/kg/day PO, Day 7
[10] = Compound A 1 mg/kg/day PO, Day 9
[11] = Compound A 1 mg/kg/day PO, Day 11
[12] = Compound A 1 mg/kg/day PO, Day 14
[13] = Compound A 5 mg/kg/day PO, Day 0 (prior to arthritis induction)
[14] = Compound A 5 mg/kg/day PO, Day 4
[15] = Compound A 5 mg/kg/day PO, Day 5
[16] = Compound A 5 mg/kg/day PO, Day 6
[17] = Compound A 5 mg/kg/day PO, Day 7
[18] = Compound A 5 mg/kg/day PO, Day 9
[19] = Compound A 5 mg/kg/day PO, Day 11
[20] = Compound A 5 mg/kg/day PO, Day 14
[21] = Compound A 25 mg/kg/day PO, Day 0 (prior to arthritis induction)
[22] = Compound A 25 mg/kg/day PO, Day 4
[23] = Compound A 25 mg/kg/day PO, Day 5
[24] = Compound A 25 mg/kg/day PO, Day 6
[25] = Compound A 25 mg/kg/day PO, Day 7

IC50 [1]: 30 nM and 0.014 µg/mL
inhibition at 10 µM [4]: -7%
Compound: CCOc1cc([C@@H](CS(C)(=O)=O)N2Cc3cccc(NC(=O)C4CC4)c3C2=O)ccc1OC [Compound A, cyclopropyl-N-{2-[(1S)-1-(3-ethoxy-4-methoxyphenyl)-2-(methylsulfonyl)ethyl]-3-oxoisoindoline-4-yl}carboxamide]
EC50 [2]: 6.1 µM and 2.9 µg/mL
Arthritis Scoring, mean of both hind paws (0-4 scale) [3, 5]: 0
Hind Paws Thickness, group mean [3, 5]: 2.2 mm
Arthritis Scoring, mean of both hind paws (0-4 scale) [3, 6]: 0
Hind Paws Thickness, group mean [3, 6]: 2.2 mm
Percentage Change in Hind Paw Thickness vs. Study Commencement (Day 0), group mean [3, 6]: 1%
Arthritis Scoring, mean of both hind paws (0-4 scale) [3, 7]: 1
Hind Paws Thickness, group mean [3, 7]: 2.4 mm
Percentage Change in Hind Paw Thickness vs. Study Commencement (Day 0), group mean [3, 7]: 8%
Arthritis Scoring, mean of both hind paws (0-4 scale) [3, 8]: 2
Hind Paws Thickness, group mean [3, 8]: 2.7 mm
Percentage Change in Hind Paw Thickness vs. Study Commencement (Day 0), group mean [3, 8]: 24%
Arthritis Scoring, mean of both hind paws (0-4 scale) [3, 9]: 2
Hind Paws Thickness, group mean [3, 9]: 2.8 mm
Percentage Change in Hind Paw Thickness vs. Study Commencement (Day 0), group mean [3, 9]: 27%
Arthritis Scoring, mean of both hind paws (0-4 scale) [3, 10]: 2
Hind Paws Thickness, group mean [3, 10]: 2.7 mm
Percentage Change in Hind Paw Thickness vs. Study Commencement (Day 0), group mean [3, 10]: 23%
Arthritis Scoring, mean of both hind paws (0-4 scale) [3, 11]: 1
Percentage Change in Hind Paw Thickness vs. Study Commencement (Day 0), group mean [3, 11]: 13%
Arthritis Scoring, mean of both hind paws (0-4 scale) [3, 12]: 1
Hind Paws Thickness, group mean [3, 12]: 2.4 mm
Percentage Change in Hind Paw Thickness vs. Study Commencement (Day 0), group mean [3, 12]: 7%
Arthritis Scoring, mean of both hind paws (0-4 scale) [3, 13]: 0
Hind Paws Thickness, group mean [3, 13]: 2.2 mm
Arthritis Scoring, mean of both hind paws (0-4 scale) [3, 14]: 0
Hind Paws Thickness, group mean [3, 14]: 2.2 mm
Percentage Change in Hind Paw Thickness vs. Study Commencement (Day 0), group mean [3, 14]: 1%
Arthritis Scoring, mean of both hind paws (0-4 scale) [3, 15]: 1
Hind Paws Thickness, group mean [3, 15]: 2.5 mm
Percentage Change in Hind Paw Thickness vs. Study Commencement (Day 0), group mean [3, 15]: 12%
Arthritis Scoring, mean of both hind paws (0-4 scale) [3, 16]: 2
Hind Paws Thickness, group mean [3, 16]: 2.8 mm
Percentage Change in Hind Paw Thickness vs. Study Commencement (Day 0), group mean [3, 16]: 30%
Arthritis Scoring, mean of both hind paws (0-4 scale) [3, 17]: 2
Hind Paws Thickness, group mean [3, 17]: 2.8 mm
Percentage Change in Hind Paw Thickness vs. Study Commencement (Day 0), group mean [3, 17]: 30%
Arthritis Scoring, mean of both hind paws (0-4 scale) [3, 18]: 2
Hind Paws Thickness, group mean [3, 18]: 2.7 mm
Percentage Change in Hind Paw Thickness vs. Study Commencement (Day 0), group mean [3, 18]: 21%
Arthritis Scoring, mean of both hind paws (0-4 scale) [3, 19]: 1
Percentage Change in Hind Paw Thickness vs. Study Commencement (Day 0), group mean [3, 19]: 15%
Arthritis Scoring, mean of both hind paws (0-4 scale) [3, 20]: 1
Hind Paws Thickness, group mean [3, 20]: 2.5 mm
Percentage Change in Hind Paw Thickness vs. Study Commencement (Day 0), group mean [3, 20]: 13%
Arthritis Scoring, mean of both hind paws (0-4 scale) [3, 21]: 0
Hind Paws Thickness, group mean [3, 21]: 2.2 mm
Arthritis Scoring, mean of both hind paws (0-4 scale) [3, 22]: 0
Hind Paws Thickness, group mean [3, 22]: 2.2 mm
Percentage Change in Hind Paw Thickness vs. Study Commencement (Day 0), group mean [3, 22]: 0%
Arthritis Scoring, mean of both hind paws (0-4 scale) [3, 23]: 1
Hind Paws Thickness, group mean [3, 23]: 2.4 mm
Percentage Change in Hind Paw Thickness vs. Study Commencement (Day 0), group mean [3, 23]: 8%
Arthritis Scoring, mean of both hind paws (0-4 scale) [3, 24]: 2
Hind Paws Thickness, group mean [3, 24]: 2.7 mm
Percentage Change in Hind Paw Thickness vs. Study Commencement (Day 0), group mean [3, 24]: 21%
Arthritis Scoring, mean of both hind paws (0-4 scale) [3, 25]: 2
Hind Paws Thickness, group mean [3, 25]: 2.7 mm
Percentage Change in Hind Paw Thickness vs. Study Commencement (Day 0), group mean [3, 25]: 21%
Arthritis Scoring, mean of both hind paws (0-4 scale) ([3]; Compound A 25 mg/kg/day PO, Day 11): 1
